Key:
Plasmodium falciparum [1] = assay: Antiplasmodial activity against Plasmodium falciparum 3D7 infected in human erythrocytes assessed as [3H]hypoxanthine incorporation after 48 hrs by betaplate liquid scintillation counting analysis; format: functional, organism-based
Plasmodium falciparum [2] = assay: Antiplasmodial activity against chloroquine-resistant Plasmodium falciparum K1 infected in human erythrocytes assessed as [3H]hypoxanthine incorporation after 48 hrs by betaplate liquid scintillation counting analysis; format: functional, organism-based
[3] = Metabolic stability in human liver microsomes assessed as compound remaining at 10 ug/ml after 10 mins by LC/MS/MS analysis relative to control; format: ADME; details: read-out: Stability
[4] = Metabolic stability in human liver microsomes assessed as compound remaining at 10 ug/ml after 30 mins by LC/MS/MS analysis relative to control; format: ADME; details: read-out: Stability
[5] = Metabolic stability in human liver microsomes assessed as compound remaining at 10 ug/ml after 60 mins by LC/MS/MS analysis relative to control; format: ADME; details: read-out: Stability
Plasmodium berghei = assay: Antimalarial activity against Plasmodium berghei ANKA infected in mouse assessed as suppression of parasitaemia at 30 mg/kg, po administered for 3 days measured on day 4 relative to control; format: functional
Mus musculus = assay: Antimalarial activity against Plasmodium berghei ANKA infected in po dosed mouse assessed as suppression of parasitaemia administered for 3 days measured on day 4 relative to control; format: functional
Plasmodium falciparum [6] = assay: Selectivity ratio of IC50 for Plasmodium falciparum 3D7 infected in human erythrocytes to IC50 for Plasmodium falciparum K1 infected in human erythrocytes; format: functional

Row | Structure (SMILES) | IC50 (Plasmodium falciparum [1]; Plasmodium falciparum, 3D7) | IC50 (Plasmodium falciparum [2]) | Activity (Plasmodium berghei) | further results
1 | CN1CCN(C2CCN(C(=O)CC3CCC4(CC3)OOC3(OO4)C4CC5CC(C4)CC3C5)CC2)CC1 (stereo not drawn) | 0.819 nM | 1.12 nM |  | remaining at 10 min, 10 ug/ml [3]: 62.9%; remaining at 0.5 h, 10 ug/ml [4]: 40.6%; remaining at 1 h, 10 ug/ml [5]: 39.5%
2 | C1CN(C2CCC3(CC2)OOC2(OO3)C3CC4CC(C3)CC2C4)CCO1 (stereo not drawn) | 0.4 nM | 0.4 nM |  | 
3 | C1CCN(C2CCC3(CC2)OOC2(OO3)C3CC4CC(C3)CC2C4)C1 (stereo not drawn) | 0.7 nM | 1 nM | 99.8% | 
4 | FC1(F)CCC(NC2CCC3(CC2)OOC2(OO3)C3CC4CC(C3)CC2C4)CC1 (stereo not drawn) | 0.4 nM | 0.9 nM |  | 
5 | C1CC(NC2CCC3(CC2)OOC2(OO3)C3CC4CC(C3)CC2C4)CCO1 (stereo not drawn) | 0.7 nM | 0.4 nM |  | ED50 (Mus musculus): 2.8 mg/kg; ED90 (Mus musculus): 18 mg/kg
6 | CN1CCC(NC2CCC3(CC2)OOC2(OO3)C3CC4CC(C3)CC2C4)CC1 (stereo not drawn) | 0.4 nM | 1.1 nM | 99.2% | 
7 | O=S1(=O)CC[N+]([O-])(C2CCC3(CC2)OOC2(OO3)C3CC4CC(C3)CC2C4)CC1 (stereo not drawn) | 3.7 nM | 2.5 nM |  | 
8 | C1CCN(C2CCC3(CC2)OOC2(OO3)C3CC4CC(C3)CC2C4)CC1 (stereo not drawn) | 0.6 nM | 0.4 nM |  | 
9 | FC1(F)CCN(C2CCC3(CC2)OOC2(OO3)C3CC4CC(C3)CC2C4)CC1 (stereo not drawn) | 0.6 nM | 1.3 nM | 99.8% | ED50 (Mus musculus): 9.4 mg/kg; ED90 (Mus musculus): 34 mg/kg
10 | C1CCN(C2CCN(C3CCC4(CC3)OOC3(OO4)C4CC5CC(C4)CC3C5)CC2)CC1 (stereo not drawn) | 2.4 nM | 0.2 nM | 99.7% | Ratio IC50 (Plasmodium falciparum [6]): 25
11 | C1CCC(NC2CCC3(CC2)OOC2(OO3)C3CC4CC(C3)CC2C4)CC1 (stereo not drawn) | 0.4 nM | 0.2 nM |  | Ratio IC50 (Plasmodium falciparum [6]): 25
12 | NC1CCN(C2CCC3(CC2)OOC2(OO3)C3CC4CC(C3)CC2C4)CC1 (stereo not drawn) |  | 1.2 nM |  | IC50 (Plasmodium falciparum [1]): 1.2 nM; remaining at 10 min, 10 ug/ml [3]: 86.7%; remaining at 0.5 h, 10 ug/ml [4]: 73.6%; remaining at 1 h, 10 ug/ml [5]: 57.4%
13 | C1C2CC3CC1CC(C2)C31OOC2(CCC(NC3CC3)CC2)OO1 (stereo not drawn) | 1.5 nM |  | 99.7% | 
14 | CC(C)(C)NC1CCC2(CC1)OOC1(OO2)C2CC3CC(C2)CC1C3 (stereo not drawn) | 1.3 nM |  | 98.7% | 
15 | O=C1CN(C2CCC3(CC2)OOC2(OO3)C3CC4CC(C3)CC2C4)CCN1 (stereo not drawn) | 3.5 nM |  | 98.8% | 
16 | CC(C)(C)OC(=O)NC1CCN(C2CCC3(CC2)OOC2(OO3)C3CC4CC(C3)CC2C4)CC1 (stereo not drawn) | 1 nM |  |  | 
17 | C1CC(NC2CCC3(CC2)OOC2(OO3)C3CC4CC(C3)CC2C4)CCO1.Cl (stereo not drawn) |  |  |  | IC50 (Plasmodium falciparum [1]): 1 nM; ED50 (Mus musculus): 2.3 mg/kg; ED90 (Mus musculus): 11 mg/kg
18 | Cc1ccc(S(=O)(=O)O)cc1.NC1CCN(C2CCC3(CC2)OOC2(OO3)C3CC4CC(C3)CC2C4)CC1 (stereo not drawn) |  |  | 99.9% | IC50 (Plasmodium falciparum [1]): 2.5 nM; ED50 (Mus musculus): 3.7 mg/kg; ED90 (Mus musculus): 10 mg/kg
19 | C[C@H]1[C@H](OC(=O)CCC(=O)O)O[C@@H]2O[C@@]3(C)CC[C@H]4[C@H](C)CC[C@@H]1[C@@]24OO3 [ARTESUNATE] |  | 4.9 nM | 99.6% | ED50 (Mus musculus): 2.8 mg/kg; ED90 (Mus musculus): 18 mg/kg

Reference: ChEMBL document CHEMBL3217563, “Second generation analogues of RKA182: synthetic tetraoxanes with outstanding in vitro and in vivo antimalarial activities” (Medchemcomm, 2011)
